Source: a melting point compilation (Tetko et al.; mined from patent text by program, amines drawn as free bases though some values may be those of a salt)

Row | SMILES | melting point [°C]
1 | NS(=O)(=O)c1ccc(N2CCN(CC[C@@H]3OCCc4cc(Br)ccc43)CC2)c(Br)c1 | 206 to 208
2 | CN1CCC(c2c[nH]c3ccc(O)cc23)CC1 | 234 to 237
3 | CCCCC(F)c1nc[nH]c(=O)c1Cl (stereo unspecified) | 157 to 160
4 | N#Cc1cc(C2=NOC(c3cc(Cl)cc(Cl)c3)(C(F)(F)F)C2)ccc1-n1cc(Cl)cn1 (stereo unspecified) | 190 to 191
5 | Nc1cc(CCC(=O)CCc2ccc(O)c(N)c2)ccc1O | 131 to 133
6 | Cc1cc(F)ccc1-c1nc(N[C@H]2CC[C@H](O)CC2)nc2c1ccc(=O)n2-c1c(F)cccc1F | 158 to 160
7 | CCCC(C)(C)NC(=O)n1nc(C)n(N)c1=O | 110
8 | CC(C)(C)[N+]([O-])=Cc1cc(Cl)ccc1O | 143
9 | COc1cc(N(C)C)nc(N2CCN(Cc3ccc(CNC(C)=O)cc3)CC2)n1 | 115 to 118
10 | CCOC(=O)c1cc(N(C)C)ncn1 | 40 to 42
11 | CC(C)(C)c1cc(CCc2ccccc2NC(=O)NCC(c2ccccc2)c2ccccc2)cc(C(C)(C)C)c1O | 179
12 | CC(C)(CNc1ccc(C(=O)CCC(=O)O)cc1)[N+](=O)[O-] | 198 to 200
13 | CSc1nc(C)c(CCO)c(=O)n1C | 117 to 118
14 | COc1c(CC#N)c2c(c3c1OC(C)(C)C3)C(c1cccc(C(=O)NC(C)(C)C(N)=O)c1)=NC(C)(C)C2 | 217 to 219
15 | O=C(O)C1=Cc2c(F)cccc21 | 81 to 83
16 | COc1ccc([N+](=O)[O-])cc1CO | 121 to 122
17 | CC/C(=C(\c1ccc(/C=C/C(=O)O)cc1)c1ccc(OC(=O)CCC(F)(F)F)cc1)c1ccccc1 | 162 to 163
18 | O=c1cc(SCc2ccccc2)cco1 | 105 to 106
19 | O=C(Cl)c1cc2ccccc2[nH]1 | 120
20 | CC(=O)Nc1cc(C(C)(C)C)c(SC2=C(O)CC(CCc3ccc(O)cc3)(C3CCCCC3)OC2=O)cc1C (stereo unspecified) | > 154
21 | CN(C)S(=O)(=O)c1ccc(Cl)c(-c2csc(=Nc3ccc(O)cc3)n2C)c1 | 221 to 224

Row | SMILES | melting point [°C]
22 | Cc1c(OCC(F)(F)C(F)(F)F)ccnc1CSc1nc2ccccc2[nH]1 | 145 to 146
23 | CCc1nnc(N2CCN(c3ccc(N4CC(CNC(C)=O)OC4=O)cc3F)CC2)s1 (stereo unspecified) | 237 to 238
24 | COc1ccc(-c2c3c(cc4ccc5c(c24)OCO5)C(=O)NC3)cc1 | 266 to 269
25 | CC(C)(C)c1cc2c(c(C(C)(C)C)c1)OC(=O)C2c1ccc(O)cc1 (stereo unspecified) | 187 to 190
26 | Clc1nc(Cl)nc(NC2CC2)n1 | 99 to 101
27 | Nc1cc(-c2c[nH]c3ncccc23)c2ccccc2n1 | 244
28 | O=C1c2ccccc2C(=O)c2sc(-c3ccc(Cl)o3)nc21 | 258
29 | CC(C(=O)O)c1cc(F)c([N+](=O)[O-])cc1[N+](=O)[O-] (stereo unspecified) | 141 to 142
30 | CC(C)(C)NCC(O)c1ccc(N)c(C#N)c1Cl (stereo unspecified) | 85 to 88
31 | Cc1c(C(=O)Nc2ccc(Cl)c([N+](=O)[O-])c2)cnn1-c1ccc(Cl)cc1 | 221 to 225
32 | c1ccc(Nc2ccc3nnn(Cc4ccc5ncccc5c4)c3n2)cc1 | 237 to 239
33 | O=C(O)C1CCN(c2nnc(NCc3ccc4c(c3)OCO4)c3cnccc23)CC1 | 205 to 206
34 | Fc1ccc2[nH]cc(CCCN3CCN(c4cccc(Cl)c4Cl)CC3)c2c1 | 147 to 148
35 | CCNc1c([N+](=O)[O-])cc(C(C)(C)C)cc1[N+](=O)[O-] | 70 to 73
36 | CC(=O)Oc1cc2nc(-c3ccccc3)nn2c2ccccc12 | 200 to 202
37 | CCOC(=O)C1=Cc2cc(-c3ccc(S(C)(=O)=O)cc3)ccc2OCC1 | 150 to 153
38 | Cc1cc(-c2cc(C(F)(F)F)n3ncc(C(=O)Nc4cc(S(N)(=O)=O)sc4Cl)c3n2)ccc1C(F)(F)F | 283
39 | CC(C)(C)OC(=O)N1CCn2c(c(C(N)=O)c(Cl)c2-c2ccccc2)C1 | 183 to 185
40 | CC(=O)OCc1ccccc1/C(=N\O)C(N)=O | 112 to 114
41 | CC1Cc2cc3c(cc2C(c2ccc(Cl)cc2)=NN1c1nccs1)OCO3 (stereo unspecified) | 116 to 117
42 | N#Cc1cccc(-c2cccs2)n1 | 88.2 to 88.6

Continued, values first:

Row | melting point [°C] | SMILES
43 | 215 to 217 | O=c1[nH]c2ccsc2c(=O)n1CCN1CCN(c2ccccc2)CC1
44 | 160 to 162 | CCN1C(=O)C(NC(=O)C(F)(F)F)CCc2c1ccc(Nc1ncc(Cl)c(N[C@@H]3CCCC[C@H]3NS(C)(=O)=O)n1)c2OC (stereo partly specified)
45 | 146 to 147 | CC(C)(C)COC(=O)N1CC2CC(CN(CC(O)COc3ccc(C#N)cc3)C2)C1 (stereo unspecified)
46 | 159 to 162 | CCCC1=C(C(=O)OCC)C(c2cccc(F)c2C)c2c[nH]nc2N1 (stereo unspecified)
47 | 73 to 75 | CC1=CC(=O)C(C)S(=O)(=O)N1C (stereo unspecified)
48 | 75 to 76 | CC(C)=CCc1c(O)ccc(C(=O)C=Cc2ccc(O)cc2)c1O
49 | 178 to 183 | O=C(O)Cc1cccc(Oc2cccc(Cl)c2Cl)c1[N+](=O)[O-]
50 | 106 to 107 | Cc1c(-c2ccc(OCc3ccccc3)cc2)n(Cc2ccc(OCCN3CCCCCC3)cc2)c2ccc(OCc3ccccc3)cc12
51 | 55 to 56 | CCc1scc(C(=O)OC)c1NC(=O)C(F)(F)F
52 | 80 to 83 | COc1c(I)c(OC)c2ccccc2c1C(=O)OCc1ccccc1
53 | 157 to 159 | O=C(NCC(=O)c1cccs1)c1ccc(Cl)cc1
54 | 287 | O=c1[nH]c(=O)c2ccc(C(c3ccccc3)n3ccnc3)cc2[nH]1 (stereo unspecified)
55 | 184 to 185 | CC(=O)OCC1OC(n2cc(Cc3ccc4occc4c3)c3c(F)cccc32)C(OC(C)=O)C(OC(C)=O)C1OC(C)=O (stereo unspecified)
56 | 41 | CCCCc1ccc(-c2ccc(CCc3ccc(C)cc3)cc2)c(F)c1
57 | 78 to 80 | CCNC(=O)c1c([Si](C)(C)C)ccc(C(C)=O)c1Cl
58 | 192 | COc1ccc(C=C2c3ccccc3CCc3ccccc32)cc1NS(C)(=O)=O
59 | 57 to 59 | CCCc1c(OCCCCCCC(=O)NCCCCc2cccnc2)ccc(C(C)=O)c1O
60 | 353 to 356 | O=c1[nH]c2ncc(-c3ccc(-c4nc[nH]n4)nc3)nc2n1CC1CCOCC1
61 | 104 | CCN1CCN(C(=O)c2cc(N)cc(C(F)(F)F)c2)CC1
62 | 240 to 242 | C=CCNc1c(C(=O)O)cnc2cn[nH]c12
63 | > 270 | COC(=O)c1sc2c(c1N)c1ccccc1c(=O)n2-c1ccccc1
64 | 175 to 178 | COc1ccc(-c2cnc3cc4cn(CCOC(C)=O)nc4cc3n2)cc1F
65 | 183 to 185 | CCN(CC)CC1CCCCN1CCNC(=O)N1c2cc(C)ccc2C(=O)Nc2cccnc21 (stereo unspecified)
66 | 89.5 | CSC(=CC(=O)c1cccc(C(F)(F)F)c1)SC
67 | 177 | CCOc1ccc(C=Cc2ccc(OC(F)F)cc2)cc1
68 | 222 to 224 | Cc1ccc(C2c3c(C)c(N4C(=O)c5ccccc5C4=O)c(C)c(C)c3OC2(C)C)cc1 (stereo unspecified)
69 | 315 to 317 | CC1(C)C(=O)Nc2ccc(C3=NNC(=O)C4CCC34)cc21 (stereo unspecified)
70 | 169 | CC(=O)OC1CSC(Oc2ccc(-c3cnccc3F)nc2-c2cnccc2F)C(OC(C)=O)C1OC(C)=O (stereo unspecified)
71 | 98 to 100 | COc1cc(OC)nc(Cc2ccccc2NC(=O)OC(C)(C)C)n1
